Source: publication PMC9605497, “Potential of Epidermal Growth Factor-like Peptide from the Sea Cucumber Stichopus horrens to Increase the Growth of Human Cells: In Silico Molecular Docking Approach” (Marine Drugs, 2022)

System: EGF/PDGF pathway genes
Test: qPCR array of EGF/PDGF pathway genes
Format: cell-based, human
Design: key to expression class: +: Maximum expression; −: Minimum expression; unc.: Unchanged
Details: 10 nM, 4 h; for fold change: vs serum-free medium
Procedure: Cells were seeded at 80,000 cells per well of 24-well plates in 400 µL of complete growth medium. Cells were grown in MEM basal medium supplemented with 10% FBS and 1% antibiotic–antimycotic in a humidified incubator at 37 °C, equilibrated with 5% CO2. After 24 h of culture, the medium was removed, washed once with PBS, replaced with serum-free medium and left to culture for another 16 h. Medium was removed and replaced with corresponding treatment medium each in triplicates; 10 nM and 50 nM of Sh-EGFl-1, 10 nM and 50 nM of rhEGF were used as a positive control and serum-free medium was used as a negative control. Cells were harvested after 4 h. Medium was removed and 200 μL of Trizol reagent (Thermo Scientific, Waltham, MA, USA) was immediately added.
RNA extraction was performed according to Trizol reagent manufacturer’s protocol. An elution volume of 15 μL RNase-free water was added before the concentration and purity were determined using NanoDrop.
A total of 100 ng RNA was used initially for the cDNA synthesis reaction. The reaction was carried out according to RT^2 First Strand Kit’s protocol (Qiagen, Venlo, Netherlands). Genomic DNA was removed according to the manufacturer’s protocol prior to cDNA strand generation.
The 10 μL cDNA of human skin cells was diluted with 91 μL prior to qPCR reaction. Primer pairs of 84 genes involved in the EGF pathway, five housekeeping genes such as ribosomal protein large, P0 (RPL0), glyceraldehyde-3-phosphate-dehydrogenase (GAPDH), beta-actin (ACTB), beta-2-microglobulin (B2M) and hypoxanthine phosphoribosyltransferase 1 (HPRT1), one positive control gene for genomic DNA contamination, three reverse transcription control genes and three PCR-positive controls were included in the Qiagen PAHS-040ZA qPCR array plate (Qiagen, Venlo, Netherlands). A list of all genes analyzed in this study is available in Supplementary Materials Table S7. The mixture reaction was prepared according to the protocol and run using BioRad CFX96TM. Samples of 10 nM rhEGF and 10 nM Sh-EGFl-1 were prepared in duplicates. The following thermal profile was applied: 1 cycle at 95 °C for 10 min, 40 cycles at 95 °C for 15 s, 60 °C for 1 min, with the ramp rate from 95 °C to 60 °C was set at 1 °C every second. The data were then analyzed through Qiagen web portal. Data for serum-free medium were selected as a control group and the differences in gene expression between control and treatment groups were calculated using the 2^(−delta delta CT) method. The difference, known as fold change, was obtained from the delta delta CT values, which are the genes of interest and the average housekeeping genes, followed by the delta delta CT (delta CT (treatment group)—delta CT (control group)).

[1] = IKBKB (IKK), PLC gamma signaling
[2] = PLCG1 (PLC), PLC gamma signaling
[3] = PPP2CA (TSC2), PLC gamma signaling
[4] = RASA1 (p120GAP), MAPK signaling
[5] = RPS6KA5 (p70S6K), MAPK signaling
[6] = RPS6KA5 (p70S6K), PI3K signaling
[7] = RPS6KA5 (p70S6K), PLC gamma signaling
[8] = RPS6KB1 (p70S6K), MAPK signaling
[9] = RPS6KB1 (p70S6K), PI3K signaling
[10] = RPS6KB1 (p70S6K), PLC gamma signaling

In the case of “H-MNSDSECPLSHDGYCLHDGVCMYIEALDKYACNCVVGYIGERCQYRDLKWWELR-OH (disulfide) [rhEGF, Recombinant human EGF purchased from Thermo Scientific, reference compound]”, the “gene expression profile, EGF/PDGF pathway” value (qPCR array heat map) is reported as “opposite gene expression profile”, the expression class (AKT1, PI3K signaling) is reported as “−” and the fold change (AKT1, PI3K signaling) is reported as “(0.69)”. The expression class (AKT3, PI3K signaling) was “−”, the fold change (AKT3, PI3K signaling) was “(0.87)” and the expression class (ATF1, MAPK signaling) was “−”. The fold change (ATF1, MAPK signaling) was “(0.87)”, the expression class (ATF2, MAPK signaling) was “−” and the fold change (ATF2, MAPK signaling) was “(0.67)”. For the same substance, the expression class (CASP3, MAPK signaling) was “−”, the fold change (CASP3, MAPK signaling) was “(0.70)” and the expression class (CASP9, MAPK signaling) was “−”. For the same substance, the fold change (CASP9, MAPK signaling) was “(0.63)”, the expression class (CBL, MAPK signaling) was “−” and the fold change (CBL, MAPK signaling) was “(0.96)”. The expression class (CCND1, PI3K signaling) was “−”, the fold change (CCND1, PI3K signaling) was “(0.83)” and the expression class (DUSP1, MAPK signaling) was “−”. The fold change (DUSP1, MAPK signaling) was “(0.50)”, the expression class (DUSP6, MAPK signaling) was “−” and the fold change (DUSP6, MAPK signaling) was “(0.74)”. The expression class (E1F4E, PI3K signaling) was “+”, the fold change (E1F4E, PI3K signaling) was “(1.24)” and the expression class (ELK1, JAK-STAT signaling) was “−”. The fold change (ELK1, JAK-STAT signaling) was “(0.77)”, the expression class (FOS, JAK-STAT signaling) was “−” and the fold change (FOS, JAK-STAT signaling) was “(1.02)”. The expression class (GAB1, PI3K signaling) was “+”, the fold change (GAB1, PI3K signaling) was “(0.88)” and the expression class (GRB2, PI3K signaling) was “−”. The fold change (GRB2, PI3K signaling) was “(0.76)”, the expression class (GSK3A, PI3K signaling) was “−” and the fold change (GSK3A, PI3K signaling) was “(0.75)”. The expression class (GSK3B, PI3K signaling) was “−”, the fold change (GSK3B, PI3K signaling) was “(0.84)” and the expression class (HRAS, MAPK signaling) was “−”. For the same substance, the fold change (HRAS, MAPK signaling) was “(0.62)”, the expression class (IKBKB (IKK), PI3K signaling) was “−” and the fold change (IKBKB (IKK), PI3K signaling) was “(0.73)”. The expression class [1] was “−”, the fold change [1] was “(0.73)” and the expression class (IKBKB, MAPK signaling) was “−”. The fold change (IKBKB, MAPK signaling) was “(0.73)”, the expression class (JAK1, JAK-STAT signaling) was “−” and the fold change (JAK1, JAK-STAT signaling) was “(0.77)”. The expression class (JUN, JAK-STAT signaling) was “unc”, the fold change (JUN, JAK-STAT signaling) was “(0.98)” and the expression class (MAP2K1 (MEK1), MAPK signaling) was “−”. The fold change (MAP2K1 (MEK1), MAPK signaling) was “(0.74)”, the expression class (MAP2K4 (MKK4), MAPK signaling) was “−” and the fold change (MAP2K4 (MKK4), MAPK signaling) was “(0.51)”. For the same substance, the expression class (MAP2K7 (MKK7), MAPK signaling) was “+”, the fold change (MAP2K7 (MKK7), MAPK signaling) was “(0.95)” and the expression class (MAP3K2 (MEKK2), MAPK signaling) was “−”. The fold change (MAP3K2 (MEKK2), MAPK signaling) was “(0.82)”, the expression class (MAPK1 (ERK2), MAPK signaling) was “−” and the fold change (MAPK1 (ERK2), MAPK signaling) was “(0.76)”. For the same substance, the expression class (MAPK3 (ERK1), MAPK signaling) was “−”, the fold change (MAPK3 (ERK1), MAPK signaling) was “(0.79)” and the expression class (MAPK8, MAPK signaling) was “−”. The fold change (MAPK8, MAPK signaling) was “(0.73)”, the expression class (MAPK9, MAPK signaling) was “−” and the fold change (MAPK9, MAPK signaling) was “(0.54)”. For the same substance, the expression class (MAPK10, MAPK signaling) was “+”, the fold change (MAPK10, MAPK signaling) was “(1.24)” and the expression class (MKNK1, MAPK signaling) was “−”. The fold change (MKNK1, MAPK signaling) was “(0.54)”, the expression class (NFATC3, MAPK signaling) was “−” and the fold change (NFATC3, MAPK signaling) was “(0.96)”. For the same substance, the expression class (NFKB, PI3K signaling) was “−”, the fold change (NFKB, PI3K signaling) was “(0.90)” and the expression class (NFKB, PLC gamma signaling) was “−”. The fold change (NFKB, PLC gamma signaling) was “(0.90)”, the expression class (P13KCA, PI3K signaling) was “−” and the fold change (P13KCA, PI3K signaling) was “(1.08)”. The expression class (PDPK1 (PDK1), PI3K signaling) was “−”, the fold change (PDPK1 (PDK1), PI3K signaling) was “(0.86)” and the expression class (PIK3R1, PI3K signaling) was “−”. The fold change (PIK3R1, PI3K signaling) was “(0.80)”, the expression class (PIK3R2, PI3K signaling) was “−” and the fold change (PIK3R2, PI3K signaling) was “(0.75)”. For the same substance, the expression class [2] was “−”, the fold change [2] was “(0.89)” and the expression class [3] was “−”. For the same substance, the fold change [3] was “(0.69)”, the expression class (PRKCA, PLC gamma signaling) was “−” and the fold change (PRKCA, PLC gamma signaling) was “(0.78)”. For the same substance, the expression class (RAP1A, MAPK signaling) was “−”, the fold change (RAP1A, MAPK signaling) was “(0.80)” and the expression class [4] was “−”. For the same substance, the fold change [4] was “(0.83)”, the expression class (RHOA, Rho signaling) was “−” and the fold change (RHOA, Rho signaling) was “(0.84)”. For the same substance, the expression class [5] was “unc”, the fold change [5] was “(0.75)” and the expression class [6] was “unc”. For the same substance, the fold change [6] was “(0.75)”, the expression class [7] was “unc” and the fold change [7] was “(0.75)”. The expression class [8] was “−”, the fold change [8] was “(0.68)” and the expression class [9] was “−”. The fold change [9] was “(0.68)”, the expression class [10] was “−” and the fold change [10] was “(0.68)”. For the same substance, the expression class (SHC1, MAPK signaling) was “−”, the fold change (SHC1, MAPK signaling) was “(0.80)” and the expression class (SHC1, PI3K signaling) was “−”. For the same substance, the expression class (SRC, JAK-STAT signaling) was “+”, the fold change (SRC, JAK-STAT signaling) was “(1.16)” and the expression class (STAT3, JAK-STAT signaling) was “−”. The fold change (STAT3, JAK-STAT signaling) was “(0.89)”, the expression class (STAT5, JAK-STAT signaling) was “−” and the fold change (STAT5, JAK-STAT signaling) was “(0.89)”. The expression class (TP53, MAPK signaling) was “unc”, the fold change (TP53, MAPK signaling) was “(0.82)” and the expression class (TP53, PI3K signaling) was “unc”. For the same substance, the fold change (TP53, PI3K signaling) was “(0.82)”.
